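Results reflect a 48-hour exposure of cells in 96-well plates to compound at five concentrations. At the GI50, growth is halved. Definition used: TGI = concentration required for complete inhibition of growth.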 Some results are limits rather than exact numbers.

What all share (assay): NCI-60 cell line screen, 48 h
Test [1] deals with UACC-62 melanoma.
Test [2] deals with SF-268 CNS.
The subject of test [3] is U251 CNS.
The test system of test [4] is SNB-19 CNS.
Test [5] has as its system SK-MEL-2 melanoma.
Test [6] concerns MDA-MB-231 breast.
Test [7] has as its system NCI-H522 lung.
Test [8] concerns MCF7 breast.
Test [9] concerns MALME-3M melanoma.
Test [10] relates to M14 melanoma.

For the compound `C[C@H](CCOc1cccc(CC(=O)O)c1)N(Cc1cccc(C(F)(F)F)c1Cl)CC(c1ccccc1)c1ccccc1`, the GI50 in test [1] is 2.72 µM; in test [2], 5.28 µM; in test [3] it was 4.1 µM; in test [4] it was 6.25 µM; in test [5], 5.84 µM; in test [6] it was 10.5 µM. In addition, the GI50 in [7] was 4.51 µM; in test [8] it was 3.53 µM; in test [9] it was 7.39 µM; in [10] it was 7.23 µM. Also, the TGI in [1] is 8.44 µM; in test [2], 20.3 µM; in [3], 19.3 µM; in [4] it was 19.8 µM; in test [5], 28.2 µM; in test [6], 25.1 µM. The TGI in test [7] was 22.3 µM; in [8] it was 17.9 µM; in test [9], 21.7 µM; in [10], 24.2 µM.
In the case of `CCOC(=O)c1c(C)c2c(n1Cc1ccccc1)CSCC2=O`, the GI50 in [1] was 10.3 µM; in test [2], 19.3 µM; in [3] it was 22.4 µM; in [4] it was 14.2 µM; in test [5] it was 18.4 µM; in [6] it was 14.7 µM. The GI50 in test [7] is 14.8 µM; in test [8], 17.7 µM; in test [9] it was 17.5 µM; in test [10], 20 µM. Besides, the TGI in test [1] was 29.9 µM; in test [2], above 100 µM; in [3], above 100 µM; in test [4], above 100 µM; in test [5] it was 45.7 µM; in test [6], 51.2 µM. The TGI in [7] was 58.8 µM; in test [8], 44.7 µM; in test [9], 49.2 µM; in test [10], 56.3 µM.
Consider `COc1cc2c(cc1OCCCN1CCN(CCCOc3cc4c(cc3OC)C(=O)N3CC(F)(F)C[C@H]3C=N4)CC1)N=C[C@@H]1CC(F)(F)CN1C2=O`, for which the GI50 in [1] is 3.05 µM; in test [2], 3.57 µM; in [3], 3.36 µM; in test [4], 4.08 µM; in [5] it was 10.3 µM; in test [6], 4.29 µM. The GI50 in test [7] is 1.14 µM; in [8] it was 2.09 µM; in test [9], 2.8 µM; in test [10], 3.25 µM. For the same compound, the TGI in test [1] turned out to be 13.2 µM; in [2], 14.5 µM; in [3], 14.3 µM; in test [4], 17.5 µM; in test [5] it was 23.1 µM; in test [6], 17.6 µM. Besides, the TGI was 3.86 µM in [7], 20.2 µM in test [8], 6.34 µM in [9] and 16.5 µM in [10].
On to `CCSc1nc(N=Cc2ccccc2O)c2cn[nH]c2n1`, for which the GI50 in test [1] was 16.4 µM; in test [2], 23.9 µM; in test [3], 44.4 µM; in test [4], 56.1 µM; in [5], 39.9 µM; in test [6], 12.7 µM. Also, the GI50 in [7] was 48.9 µM; in [8], 19.9 µM; in [9], 0.137 µM; in [10] it was 17.4 µM. The TGI in test [1] was 54.7 µM; in test [2] it was 77.4 µM; in test [3] it was above 100 µM; in test [4] it was above 100 µM; in [5], above 100 µM; in [6], above 100 µM. Also, the TGI was above 100 µM in test [7], 59.4 µM in [8], 34.7 µM in test [9] and 33 µM in [10].
As for `NNc1ncnc2nc[nH]c12`, the GI50 is 3.05 µM in [1]; 8.24 µM in test [2]; 10.9 µM in test [3]; 28.7 µM in test [4]; 9.27 µM in [5]; 2.92 µM in test [6]. In addition, the GI50 in test [7] was 1.83 µM; in test [8], 3.1 µM; in [9], 28.6 µM; in [10], 2.76 µM. The TGI in [1] was 39.9 µM; in test [2], above 100 µM; in [3], above 100 µM; in test [4], above 100 µM; in [5], 97.4 µM; in test [6], 31.7 µM. Further, the TGI in test [7], in [8], in test [9] and in test [10] was above 100 µM throughout.
On to `CCCCCCCCSC1=C(Cl)C(=O)C(OC)=C(OC)C1=O`, for which the TGI in test [1] stood at 24 µM; in test [2], 28.7 µM; in test [3], 26.6 µM; in [4] it was 24.3 µM; in [5], 30.9 µM; in [6] it was 29 µM. The TGI in test [7] came to 14.4 µM; in [8], 17.4 µM; in test [9] it was 21.8 µM; in test [10] it was 16.9 µM.
For `COc1ccc(Cl)cc1NC(=O)c1ccc(NC2=C(Cl)C(=O)N(Cc3ccccc3)C2=O)cc1`, the GI50 in test [1] was 33.7 µM; in test [2], 25.3 µM; in test [3], 28.3 µM; in test [4], above 100 µM; in test [6], 26.2 µM; in test [7], 17.5 µM. Moreover, the GI50 was 5.92 µM in test [8], above 100 µM in [9] and above 100 µM in [10]. The TGI in test [1], in test [2], in test [3], in test [4], in test [6] and in [7] was above 100 µM each time. The results for the TGI in test [8], in [9] and in test [10] were 34.3 µM, above 100 µM and above 100 µM, respectively.
Regarding `Cc1nc2c(Br)cc(Br)cc2c(=O)n1-c1nnc(-c2cccc(Cl)c2Cl)c(N)n1`, the GI50 in [1] was 13.4 µM; in test [2] it was 45.5 µM; in test [3] it was 21.7 µM; in [4] it was 42 µM; in [5], 27.4 µM; in [6], 13.9 µM. The GI50 was 12.8 µM in test [7], 26.7 µM in [8] and 4.8 µM in test [10]. The TGI in test [1] is 37.3 µM; in test [2], above 100 µM; in test [3], 72.5 µM; in test [4], above 100 µM; in [5] it was above 100 µM; in test [6], 49.5 µM. Moreover, the figures for the TGI in [7], in [8] and in test [10] were 54.6 µM, above 100 µM and 22.7 µM, respectively.
`COc1ccc(-c2c(C#N)c(N3CCOCC3)nc3[nH]c(=S)[nH]c(=S)c23)cc1OC`: the GI50 in test [1] was 20.1 µM; in test [2] it was 31.6 µM; in [3], 46.5 µM; in [4], above 100 µM; in [5], above 100 µM; in [6], 13.9 µM. Moreover, the GI50 was above 100 µM in test [7], 29.4 µM in test [8] and 81.6 µM in [10]. In addition, the TGI in [1] was 76.1 µM; in [2], above 100 µM; in [3] it was above 100 µM; in [4], above 100 µM; in test [5], above 100 µM; in test [6] it was 77.1 µM. The TGI in test [7], in test [8] and in test [10] was above 100 µM each time.
For `CCN(CCNS(C)(=O)=O)c1ccc(N)c(C)c1`, the GI50 in test [2] was 11.3 µM; in [3] it was 18.1 µM; in test [4], 17.7 µM; in test [5], 14.3 µM; in test [6], 11.8 µM; in [7], 2 µM. Besides, the GI50 in test [8] was 4.3 µM; in test [9] it was 10.2 µM; in test [10], 10.9 µM. Also, the TGI in test [2] was 24.2 µM; in test [3] it was 32.5 µM; in test [4], 33.8 µM; in test [5], 29.3 µM; in [6], 25.4 µM; in test [7] it was 3.46 µM. Further, the TGI came out at 27.2 µM in test [8], 24.4 µM in test [9] and 26.4 µM in test [10].
`COC(=O)c1c(C)cc(OC)c(C/C=C(\C)CCCc2coc(C=C(C)C)c2)c1OC`: the TGI in test [1], in [2], in [3], in [4], in test [5] and in test [6] was above 100 µM throughout. In addition, the TGI in test [7], in test [8] and in test [10] was above 100 µM each time.
Regarding `C=C(C)C(C1C=C(CCC(C=O)=C(C)C)C(=O)O1)C1(OC)C=C(C)C(=O)O1` (centres undefined), the GI50 in test [1] was 95.4 µM; in test [3], 74.7 µM; in [4], above 100 µM; in [5] it was above 100 µM; in [6], above 100 µM; in [7], above 100 µM. For the same compound, the results for the GI50 in test [8], in test [9] and in [10] were 7.6 µM, above 100 µM and above 100 µM, respectively. The TGI in test [1], in [3], in test [4], in test [5], in [6] and in test [7] was above 100 µM each time. Besides, the figures for the TGI in test [8], in test [9] and in [10] were 30.3 µM, above 100 µM and above 100 µM, respectively.

The record behind these values is PubChem BioAssay (NCI).
